# Test results: patent US8309568B2, “Transdermally deliverable opioid prodrugs, abuse-resistant compositions and methods of using opioid prodrugs” (Alltranz Inc., priority 2006, dated 2012)
# Read-outs that look alike come from different tables or passages of the source.
# Legend:
# [1] = not given; remark: listed apart in the source
# [2] = Table 6, propylene glycol, 25% aq. ethanol receiver, analyte buprenorphine from prodrug
# [3] = Table 6, propylene glycol, 25% aq. ethanol receiver, analyte intact prodrug
# [4] = Table 6, propylene glycol, 25% aq. ethanol receiver, analyte total buprenorphine (buprenorphine and/or prodrug)
# [5] = Table 8, gel formulation, analyte buprenorphine from prodrug
# [6] = Table 8, gel formulation, analyte total buprenorphine (buprenorphine and/or prodrug)
# [7] = Table 8, gel formulation, total buprenorphine flux relative to buprenorphine
# [8] = Table 11, propylene glycol, analyte buprenorphine from prodrug
# [9] = Table 11, propylene glycol, analyte total buprenorphine (buprenorphine and/or prodrug)
# [10] = Table 11, propylene glycol, total buprenorphine flux relative to buprenorphine
# [11] = Table 8, gel formulation, analyte intact prodrug
# [12] = Table 11, propylene glycol, analyte intact prodrug
# [13] = Table 10, gel formulation, analyte intact prodrug
# [14] = Table 10, gel formulation, analyte total buprenorphine (buprenorphine and/or prodrug)
# [15] = Table 12, propylene glycol/ethanol [96:4], analyte buprenorphine from prodrug
# [16] = Table 12, propylene glycol/ethanol [96:4], analyte intact prodrug
# [17] = Table 12, propylene glycol/ethanol [96:4], analyte total buprenorphine (buprenorphine and/or prodrug)
# [18] = Table 13, gel formulation, analyte buprenorphine from prodrug
# [19] = Table 13, gel formulation, analyte total buprenorphine (buprenorphine and/or prodrug)
# [20] = Table 9, propylene glycol, analyte buprenorphine from prodrug
# [21] = Table 9, propylene glycol, analyte intact prodrug
# [22] = Table 9, propylene glycol, analyte total buprenorphine (buprenorphine and/or prodrug)
compound,measurement,setting,value
"COCCOCCOCC(=O)Oc1ccc2c3c1O[C@H]1[C@@]4(OC)CC[C@@]5(C[C@@H]4[C@@](C)(O)C(C)(C)C)[C@@H](C2)N(CC2CC2)CC[C@]315 [ALL00108, Buprenorphine 2-[2-(2-methoxyethoxy)ethoxy]acetyl ester]",24 h cumulative amt,[2],9.7 ± 0.4 nmol
same,Flux,[2],0.90 ± 0.07 nmol/cm^2/h
same,Lag time,[2],12.5 ± 1.3 h
same,24 h cumulative amt,[3],7.6 ± 2.0 nmol
same,24 h cumulative amt,[4],17.3 ± 1.6 nmol
same,Flux,[4],1.01±0.07 nmol/cm^2/h
same,Lag time,[4],6.0 ± 0.5 h
same,Flux enhancement,"Table 6, propylene glycol, 25% aq. ethanol receiver, total buprenorphine flux relative to buprenorphine",2.35
same,24 h cumulative amt,[5],21.0 ± 6.7 nmol
same,Flux,[5],1.2 ± 0.6 nmol/cm^2/h
same,Lag time,[5],7.8 ± 0.8 h
same,24 h cumulative amt,[6],21.0 ± 6.7 nmol
same,Flux,[6],1.2±0.6 nmol/cm^2/h
same,Lag time,[6],7.8 ± 0.8 h
same,Flux enhancement,[7],1.3
same,24 h cumulative amt,[8],5.8 ± 0.7 nmol
same,Flux,[8],0.5 ± 0.0 nmol/cm^2/h
same,Lag time,[8],10.9 ± 2.4 h
same,24 h cumulative amt,[9],5.8 ± 0.7 nmol
same,Flux,[9],0.5±0.0 nmol/cm^2/h
same,Lag time,[9],10.9 ± 2.4 h
same,Flux enhancement,[10],1.7
same,form in which the prodrug permeated through the skin,aqueous ethanol receiver fluid,permeated through the skin as buprenorphine and intact prodrug
same,cumulative amount (nmol) higher than the buprenorphine base,"aqueous ethanol receiver, propylene glycol, relative to buprenorphine base",4 ×
same,24 h skin conc,[1]; [2],0.4 ± 0.1 µmol/g
same,24 h skin conc,[1]; [3],1.0 ± 0.3 µmol/g
same,24 h skin conc,[1]; [4],1.4 ± 0.4 µmol/g
same,24 h skin conc,[1]; [5],0.2 ± 0.2 µmol/g
same,24 h skin conc,[1]; [11],1.9 ± 1.6 µmol/g
same,24 h skin conc,[1]; [6],2.2 ± 1.8 µmol/g
same,24 h skin conc,[1]; [12],2.4 ± 0.7 µmol/g
same,24 h skin conc,[1]; [9],2.4 ± 0.7 µmol/g
"COCCOCCOCCOCCOC(=O)Oc1ccc2c3c1OC1C4(OC)CC[C@]5(CC4C(C)(O)C(C)(C)C)[C@@H](C2)N(CC2CC2)CC[C@]315 (stereo partly drawn) [ALL00115, Buprenorphine 3,6,9,12-tetraoxatridecyl carbonate]",24 h cumulative amt,[13],4.5 ± 1.3 nmol
same,Flux,[13],0.2 ± 0.1 nmol/cm^2/h
same,Lag time,[13],7.6 ± 0.5 h
same,24 h cumulative amt,[14],4.5 ± 1.3 nmol
same,Flux,[14],0.2±0.1 nmol/cm^2/h
same,Lag time,[14],7.6 ± 0.5 h
same,Flux enhancement,"Table 10, gel formulation, total buprenorphine flux relative to buprenorphine",1.2
same,24 h cumulative amt,[12],6.0 ± 1.3 nmol
same,24 h cumulative amt,[9],6.0 ± 1.3 nmol
same,Flux,[9],0.7±0.2 nmol/cm^2/h
same,Lag time,[9],9.4 ± 8.5 h
same,Flux enhancement,[10],2.3
same,form detected in the receiver fluid,both the gel formulation and propylene glycol,mostly detected as intact prodrug
same,24 h skin conc,"[1]; Table 10, gel formulation, analyte buprenorphine from prodrug",0.1 ± 0.0 µmol/g
same,24 h skin conc,[1]; [13],3.4 ± 0.6 µmol/g
same,24 h skin conc,[1]; [14],1.4 ± 0.4 µmol/g
same,24 h skin conc,[1]; [12],0.8 ± 0.2 µmol/g
same,24 h skin conc,[1]; [9],0.8 ± 0.2 µmol/g
"COCCOCCOCCOCC(=O)Oc1ccc2c3c1OC1C4(OC)CC[C@]5(CC4C(C)(O)C(C)(C)C)[C@@H](C2)N(CC2CC2)CC[C@]315 (stereo partly drawn) [ALL00116, Buprenorphine 3,6,9,12-tetraoxatridecanoyl ester]",24 h cumulative amt,[15],8.7 ± 1.2 nmol
same,Flux,[15],0.8 ± 0.2 nmol/cm^2/h
same,Lag time,[15],13.2 ± 0.8 h
same,24 h cumulative amt,[16],21.7 ± 6.7 nmol
same,Flux,[16],1.9 ± 0.6 nmol/cm^2/h
same,Lag time,[16],11.8 ± 1.4 h
same,24 h cumulative amt,[17],30.4 ± 7.0 nmol
same,Flux,[17],2.7±0.7 nmol/cm^2/h
same,Lag time,[17],12.3 ± 1.2 h
same,Flux enhancement,"Table 12, propylene glycol/ethanol [96:4], total buprenorphine flux relative to buprenorphine",9.2
same,24 h cumulative amt,[18],5.5 ± 0.6 nmol
same,Flux,[18],0.4 ± 0.1 nmol/cm^2/h
same,Lag time,[18],7.2 ± 0.6 h
same,24 h cumulative amt,[19],5.5 ± 0.6 nmol
same,Flux,[19],0.4±0.1 nmol/cm^2/h
same,Lag time,[19],7.2 ± 0.6 h
same,Flux enhancement,"Table 13, gel formulation, total buprenorphine flux relative to buprenorphine",1.2
same,24 h skin conc,[1]; [15],2.4 ± 0.9 µmol/g
same,24 h skin conc,[1]; [16],20.4 ± 5.8 µmol/g
same,24 h skin conc,[1]; [17],22.7 ± 6.8 µmol/g
same,24 h skin conc,[1]; [18],0.2 ± 0.0 µmol/g
same,24 h skin conc,"[1]; Table 13, gel formulation, analyte intact prodrug",3.3 ± 0.8 µmol/g
same,24 h skin conc,[1]; [19],3.5 ± 0.9 µmol/g
"COCCOCCOCCOC(=O)Oc1ccc2c3c1OC1C4(OC)CC[C@]5(CC4C(C)(O)C(C)(C)C)[C@@H](C2)N(CC2CC2)CC[C@]315 (stereo partly drawn) [ALL00106, Buprenorphine 3,6,9-trioxadecyl carbonate]",form in which the prodrug permeated through the skin,Hanks' buffer receiver fluid,permeated through the human skin as buprenorphine
same,24 h cumulative amt,"Table 3, donor propylene glycol, Hanks' buffer receiver, buprenorphine permeated",11.4 ± 0.8 nmol
same,Flux,"Table 3, donor propylene glycol, Hanks' buffer receiver, total buprenorphine flux",0.54±0.07 nmol/cm^2/h
same,Flux enhancement,"Table 3, donor propylene glycol, flux relative to buprenorphine",1.20
same,24 h cumulative amt,[5],1.7 ± 0.3 nmol
same,Flux,[5],0.2 ± 0.1 nmol/cm^2/h
same,Lag time,[5],4.7 ± 1.5 h
same,24 h cumulative amt,[11],3.8 ± 0.3 nmol
same,Flux,[11],0.3 ± 0.0 nmol/cm^2/h
same,Lag time,[11],8.2 ± 0.8 h
same,24 h cumulative amt,[6],5.5 ± 0.5 nmol
same,Flux,[6],0.4 ± 0.1 nmol/cm^2/h
same,Lag time,[6],6.5 ± 1.1 h
same,Flux enhancement,[7],0.4
same,24 h cumulative amt,[20],30.1 ± 13.2 nmol
same,Flux,[20],2.3 ± 0.8 nmol/cm^2/h
same,Lag time,[20],10.2 ± 1.4 h
same,24 h cumulative amt,[21],18.8 ± 4.6 nmol
same,Flux,[21],1.5 ± 0.3 nmol/cm^2/h
same,Lag time,[21],11.1 ± 1.2 h
same,24 h cumulative amt,[22],48.9 ± 17.6 nmol
same,Flux,[22],3.8 ± 1.1 nmol/cm^2/h
same,Lag time,[22],10.6 ± 1.3 h
same,Flux enhancement,"Table 9, propylene glycol, total buprenorphine flux relative to buprenorphine",3.2
same,24 h skin conc,"[1]; Table 3, donor propylene glycol, Hanks' buffer receiver, analyte buprenorphine (Bup)",0.2 ± 0.1 (Bup) μmol/g
same,24 h skin conc,"[1]; Table 3, donor propylene glycol, Hanks' buffer receiver, analyte intact prodrug (PD)",2.1 ± 1.5 (PD) μmol/g
same,24 h skin conc,[1]; [5],0.3 ± 0.1 µmol/g
same,24 h skin conc,[1]; [11],11.9 ± 3.6 µmol/g
same,24 h skin conc,[1]; [6],12.2 ± 3.6 µmol/g
same,24 h skin conc,[1]; [20],1.6 ± 0.4 µmol/g
same,24 h skin conc,[1]; [21],10.4 ± 4.0 µmol/g
same,24 h skin conc,[1]; [22],11.9 ± 4.4 µmol/g
